Reference: paper PMC6792352, “Limited Chemical Structural Diversity Found to Modulate Thyroid Hormone Receptor in the Tox21 Chemical Library” (Environmental Health Perspectives, 2019)
Counter-ions that a name gives are not always drawn. Like-named read-outs stand apart in the source and are kept apart here.

Tested on: GH3-TRE-Luc cell line
Conditions: read-out: AC50 (uM) modified / 1000, viability, 1 nM T3 present, 24 h

Clc1ccc(COC(Cn2ccnc2)c2ccc(Cl)cc2Cl)cc1 (stereo not drawn) [Econazole nitrate]
CC50 (Tox21_110001=Tox21_110852): 13.9 µM | CC50 (Tox21_110001=Tox21_200771): 23.8 µM | CC50 (Tox21_110001=Tox21_303391): 29.6 µM

CCCCCCCC[n+]1ccn(C)c1 [1-Methyl-3-octylimidazolium trifluoromethanesulfonate]
CC50 (Tox21_110001=Tox21_200708): 75.9 µM

Nc1ccc(/N=N/c2ccccc2)c(N)n1 [Phenazopyridine hydrochloride]
CC50 (Tox21_110001=Tox21_110829): 18.5 µM | CC50 (Tox21_110001=Tox21_202153): 45.2 µM | CC50 (Tox21_110001=Tox21_302738): 44.8 µM

Cc1c(O)cccc1C(=O)N[C@@H](CSc1ccccc1)[C@H](O)CN1C[C@H]2CCCC[C@H]2C[C@H]1C(=O)NC(C)(C)C [Nelfinavir mesylate]
CC50 (Tox21_110001=Tox21_111021): 3.68 µM | CC50 (Tox21_110001=Tox21_200921): 1.83 µM

CC1=CC(=O)c2ccccc2C1=O [Menadione]
CC50 (Tox21_110001=Tox21_301367): 13 µM

CN1CCc2cccc3c2[C@H]1Cc1ccc(O)c(O)c1-3 [Apomorphine]
CC50 (Tox21_110001=Tox21_110967): 27.3 µM

CC(CN1c2ccccc2Sc2ccccc21)N(C)C (stereo not drawn) [Promethazine]
CC50 (Tox21_110001=Tox21_110227): 17.9 µM

CCCOC(=O)c1cc(O)c(O)c(O)c1 [Propyl gallate]
CC50 (Tox21_110001=Tox21_113531): 32.9 µM | CC50 (Tox21_110001=Tox21_202286): 61.7 µM | CC50 (Tox21_110001=Tox21_300060): 72.8 µM

COc1ccc(C(=O)CC(=O)c2ccc(C(C)(C)C)cc2)cc1 [1-(4-tert-Butylphenyl)-3-(4-methoxyphenyl)propane-1,3-dione]
CC50 (Tox21_110001=Tox21_111427): 24.3 µM | CC50 (Tox21_110001=Tox21_202796): 71.9 µM

NNc1nncc2ccccc12 [Hydralazine hydrochloride]
CC50 (Tox21_110001=Tox21_302496): 73.4 µM

CCCCCCCCCCCC(=O)O [Triethanolamine Laurate]
CC50 (Tox21_110001=Tox21_302696): 85.4 µM

Nc1ccc(-c2ccc(N)c(N)c2)cc1N [3,3'-Diaminobenzidine]
CC50 (Tox21_110001=Tox21_302170): 93.2 µM

N#Cc1c(Cl)c(Cl)c(Cl)c(C#N)c1Cl [Chlorothalonil]
CC50 (Tox21_110001=Tox21_201687): 0.523 µM | CC50 (Tox21_110001=Tox21_300862): 0.188 µM

O=C(O)CCCC(=O)O [Glutaric acid]
CC50 (Tox21_110001=Tox21_302871): 35.4 µM

Cc1ccc(-c2cc(C(F)(F)F)nn2-c2ccc(S(N)(=O)=O)cc2)cc1 [Celecoxib]
CC50 (Tox21_110001=Tox21_111135): 21.2 µM | CC50 (Tox21_110001=Tox21_201964): 46.6 µM | CC50 (Tox21_110001=Tox21_300599): 62.4 µM

O=c1[nH]cc(F)c(=O)[nH]1 [5-Fluorouracil]
CC50 (Tox21_110001=Tox21_202335): 16.7 µM | CC50 (Tox21_110001=Tox21_300112): 30.2 µM

COc1cccc2c1C(=O)c1c(O)c3c(c(O)c1C2=O)C[C@@](O)(C(=O)CO)C[C@@H]3O[C@H]1C[C@H](N)[C@H](O)[C@H](C)O1 [Adriamycin hydrochloride]
CC50 (Tox21_110001=Tox21_112061): 1.54 µM | CC50 (Tox21_110001=Tox21_202483): 0.253 µM

O=[N+]([O-])c1ccc(O)cc1 [4-Nitrophenol]
CC50 (Tox21_110001=Tox21_300117): 67.6 µM

CC(C)Nc1ccc(Nc2ccccc2)cc1 [N-Isopropyl-N'-phenyl-p-phenylenediamine]
CC50 (Tox21_110001=Tox21_111169): 13.5 µM | CC50 (Tox21_110001=Tox21_201424): 36.2 µM | CC50 (Tox21_110001=Tox21_303202): 33.4 µM

COC(=O)Nc1nc2ccc(Sc3ccccc3)cc2[nH]1 [Fenbendazole]
CC50 (Tox21_110001=Tox21_110649): 0.23 µM | CC50 (Tox21_110001=Tox21_301828): 1.53 µM

COc1ccc(C(=O)/C(Br)=C\C(=O)O)cc1 [Bromebric acid]
CC50 (Tox21_110001=Tox21_111900): 31.6 µM

COc1ccc(CCN(C)CCCC(C#N)(c2ccc(OC)c(OC)c2)C(C)C)cc1OC (stereo not drawn) [Verapamil]
CC50 (Tox21_110001=Tox21_110300): 23.2 µM

CCCCCCCCCCCCCC[N+](C)(C)C [Tetradonium bromide]
CC50 (Tox21_110001=Tox21_112327): 5.04 µM | CC50 (Tox21_110001=Tox21_302067): 8.21 µM

O=C(NCC1CCCCN1)c1cc(OCC(F)(F)F)ccc1OCC(F)(F)F (stereo not drawn) [Flecainide]
CC50 (Tox21_110001=Tox21_110151): 36.6 µM

CC/C(=C(\c1ccccc1)c1ccc(OCCN(C)C)cc1)c1ccccc1 [Tamoxifen citrate]
CC50 (Tox21_110001=Tox21_110938): 5.89 µM | CC50 (Tox21_110001=Tox21_202070): 10.9 µM | CC50 (Tox21_110001=Tox21_300274): 4.69 µM

CCCCCCCCCCCCCCCC[N+](C)(C)C [Hexadecyltrimethylammonium bromide]
CC50 (Tox21_110001=Tox21_112096): 9.07 µM | CC50 (Tox21_110001=Tox21_300853): 11.7 µM

CCN1/C(=C/C=C/C=C/c2sc3ccccc3[n+]2CC)Sc2ccccc21 [Dithiazanine chloride]
CC50 (Tox21_110001=Tox21_113171): 7.02 µM

O=[N+]([O-])c1ccc(O)cc1 [Sodium 4-nitrophenolate]
CC50 (Tox21_110001=Tox21_300477): 44.7 µM

C[C@]12CC[C@@H]3c4ccc(O)cc4CC[C@H]3[C@@H]1CC[C@@H]2OC(=O)CCC1CCCC1 [Estradiol cypionate]
CC50 (Tox21_110001=Tox21_110003): 32.5 µM | CC50 (Tox21_110001=Tox21_112331): 43.4 µM | CC50 (Tox21_110001=Tox21_301818): 86.1 µM

NC[C@H]1O[C@H](O[C@H]2[C@H](O)[C@@H](O[C@H]3O[C@H](CO)[C@@H](O)[C@H](N)[C@H]3O)[C@H](N)C[C@@H]2N)[C@H](O)[C@@H](O)[C@@H]1O [Kanamycin A sulfate]
CC50 (Tox21_110001=Tox21_202817): 3.08 µM

CN(Cc1ccc(C(C)(C)C)cc1)Cc1cccc2ccccc12 [Butenafine hydrochloride]
CC50 (Tox21_110001=Tox21_112918): 28.6 µM

O=S1(=O)OC(c2ccc(O)cc2)(c2ccc(O)cc2)c2ccccc21 [Phenol red]
CC50 (Tox21_110001=Tox21_303570): 79.8 µM
